Source: article PMC9516332 (Frontiers in Oncology, 2022)
Where two headings read alike, the source gives them in different places.

Tested on: 134 cancer cell lines
Experiment: Cell viability assay (ATPlite, 72 hours), IC50 on cancer cell line panel

With `CC(=O)Nc1cccc(-n2c(=O)n(C3CC3)c(=O)c3c(Nc4ccc(I)cc4F)n(C)c(=O)c(C)c32)c1` [trametinib] the IC50 (Homo sapiens, MOLT-4, read-out: IC50 in cell proliferation assay, MOLT-4 cell line) was 27600 nM, the IC50 (Homo sapiens, MV4-11, read-out: IC50 in cell proliferation assay, MV4-11 cell line (FLT3 ITD)) was 22 nM and the IC50 (Homo sapiens, MeWo, read-out: IC50 in cell proliferation assay, MeWo cell line) was 36 nM. For the same compound, the IC50 (Homo sapiens, NCCIT, read-out: IC50 in cell proliferation assay, NCC-IT cell line) was 871 nM, the IC50 (Homo sapiens, NCI-H82, read-out: IC50 in cell proliferation assay, cell line NCI-H82) was > 28200 nM and the IC50 (Homo sapiens, NCI-H460, read-out: IC50 in cell proliferation assay, NCI-H460 cell line) was 33 nM. For the same compound, the IC50 (Homo sapiens, NCI-H661, read-out: IC50 in cell proliferation assay, NCI-H661 cell line) was > 28200 nM, the IC50 (Homo sapiens, NCI-H716, read-out: IC50 in cell proliferation assay, cell line NCI-H716 (FGFR2-COL14A1)) was 34 nM and the IC50 (Homo sapiens, NCI-H1650, read-out: IC50 in cell proliferation assay, NCI-H1650 cell line (EGFR exon19del)) was 75 nM. The IC50 (Homo sapiens, NCI-H1975, read-out: IC50 in cell proliferation assay, NCI-H1975 cell line (EGFR p.L858R + p.T790M)) was 85 nM, the IC50 (Homo sapiens, NCI-H2228, read-out: IC50 in cell proliferation assay, NCI-H2228 cell line (EML4-ALK)) was 265 nM and the IC50 (Homo sapiens, OVCAR-3, read-out: IC50 in cell proliferation assay, cell line OVCAR-3) was > 28200 nM. For the same compound, the IC50 (Homo sapiens, PFSK-1, read-out: IC50 in cell proliferation assay, cell line PFSK-1) was > 28200 nM, the IC50 (Homo sapiens, RL95-2, read-out: IC50 in cell proliferation assay, cell line RL95-2 (EGFR p.A289V)) was 1.55 nM and the IC50 (Homo sapiens, RPMI-7951, read-out: IC50 in cell proliferation assay, cell line RPMI-7951 (BRAF p.V600E)) was 17 nM. The IC50 (Homo sapiens, RS4-11, read-out: IC50 in cell proliferation assay, cell line RS4;11) was > 28200 nM, the IC50 (Homo sapiens, Rec1, read-out: IC50 in cell proliferation assay, cell line REC-1) was 12300 nM and the IC50 (Homo sapiens, SHP77, read-out: IC50 in cell proliferation assay, cell line SHP-77) was > 28200 nM. For the same compound, the IC50 (Homo sapiens, SK-BR-3, read-out: IC50 in cell proliferation assay, cell line SK-BR-3 (ERBB2 amplification)) was > 31600 nM, the IC50 (Homo sapiens, SK-N-AS, read-out: IC50 in cell proliferation assay, cell line SK-N-AS) was 4 nM and the IC50 (Homo sapiens, SK-N-FI, read-out: IC50 in cell proliferation assay, cell line SK-N-FI) was 34 nM. For the same compound, the IC50 (Homo sapiens, SK-N-MC, read-out: IC50 in cell proliferation assay, cell line SK-N-MC) was > 31600 nM, the IC50 (Homo sapiens, SK-N-SH, read-out: IC50 in cell proliferation assay, cell line SK-N-SH (ALK p.F1174L)) was 17 nM and the IC50 (Homo sapiens, SNU-5, read-out: IC50 in cell proliferation assay, cell line SNU-5 (MET amplification)) was 12 nM. For the same compound, the IC50 (Homo sapiens, SNU-16, read-out: IC50 in cell proliferation assay, cell line SNU-16 (FGFR2 amplification)) was 146 nM, the IC50 (Homo sapiens, SNU-C2B, read-out: IC50 in cell proliferation assay, cell line SNU-C2B (EGFR p.R165Q)) was 41 nM and the IC50 (Homo sapiens, SU-DHL-1, read-out: IC50 in cell proliferation assay, cell line SU-DHL-1 (NPM1-ALK)) was 279 nM. The IC50 (Homo sapiens, SU-DHL-6, read-out: IC50 in cell proliferation assay, cell line SU-DHL-6) was 27 nM, the IC50 (Homo sapiens, SUP-T1, read-out: IC50 in cell proliferation assay, cell line SUP-T1) was > 28200 nM and the IC50 (Homo sapiens, SW48, read-out: IC50 in cell proliferation assay, cell line SW48 (EGFR p.G719S)) was 6 nM. It also gave an IC50 (Homo sapiens, SW480, read-out: IC50 in cell proliferation assay, cell line SW480) of 230 nM, an IC50 (Homo sapiens, SW626, read-out: IC50 in cell proliferation assay, cell line SW626) of 59 nM and an IC50 (Homo sapiens, SW780, read-out: IC50 in cell proliferation assay, cell line SW780 (FGFR3-BAIAP2L1)) of 20 nM. The IC50 (Homo sapiens, SW837, read-out: IC50 in cell proliferation assay, cell line SW837) was 98 nM, the IC50 (Homo sapiens, SW872, read-out: IC50 in cell proliferation assay, cell line SW872 (BRAF p.V600E)) was 23 nM and the IC50 (Homo sapiens, SW900, read-out: IC50 in cell proliferation assay, cell line SW900) was 111 nM. It also gave an IC50 (Homo sapiens, SW948, read-out: IC50 in cell proliferation assay, cell line SW948) of 26 nM, an IC50 (Homo sapiens, SW982, read-out: IC50 in cell proliferation assay, cell line SW982 (BRAF p.V600E)) of 929 nM and an IC50 (Homo sapiens, SW-620, read-out: IC50 in cell proliferation assay, cell line SW620) of 17 nM. For the same compound, the IC50 (Homo sapiens, T98G, read-out: IC50 in cell proliferation assay, cell line T98G) was > 28200 nM, the IC50 (Homo sapiens, TCC-SUP, read-out: IC50 in cell proliferation assay, cell line TCCSUP) was 1450 nM and the IC50 (Homo sapiens, THP-1, read-out: IC50 in cell proliferation assay, cell line THP-1) was 1 nM. It also gave an IC50 (Homo sapiens, U2OS, read-out: IC50 in cell proliferation assay, cell line U2OS) of 4 nM, an IC50 (Homo sapiens, U-87 MG, read-out: IC50 in cell proliferation assay, cell line U-87MG ATCC) of 245 nM and an IC50 (Homo sapiens, U-118-MG, read-out: IC50 in cell proliferation assay, cell line U-118MG) of 151 nM. For the same compound, the IC50 (Homo sapiens, UMUC3, read-out: IC50 in cell proliferation assay, cell line UM-UC-3) was 21 nM, the IC50 (Hs766T, read-out: IC50 in cell proliferation assay, Hs 766T cell line) was 2.34 nM and the IC50 (L-82, read-out: IC50 in cell proliferation assay, L-82 cell line (NPM1-ALK)) was 86 nM. The IC50 (Rh30, read-out: IC50 in cell proliferation assay, cell line Rh30) was 237 nM, the IC50 (read-out: IC50 in cell proliferation assay, 11-18 cell line (EGFR p.L858R)) was > 31600 nM and the IC50 (read-out: IC50 in cell proliferation assay, Hs 852.T cell line) was 218 nM. The IC50 (read-out: IC50 in cell proliferation assay, JAR cell line) was > 28200 nM, the IC50 (read-out: IC50 in cell proliferation assay, cell line 5637) was 297 nM and the IC50 (read-out: IC50 in cell proliferation assay, cell line A-388) was 99 nM. The IC50 (read-out: IC50 in cell proliferation assay, cell line DB) was 18900 nM, the IC50 (read-out: IC50 in cell proliferation assay, cell line DEL (NPM1-ALK)) was > 31600 nM and the IC50 (read-out: IC50 in cell proliferation assay, cell line ES-2 (BRAF p.V600E)) was 7 nM. For the same compound, the IC50 (read-out: IC50 in cell proliferation assay, cell line PA-1) was 666 nM, the IC50 (read-out: IC50 in cell proliferation assay, cell line PC-3) was > 28200 nM and the IC50 (read-out: IC50 in cell proliferation assay, cell line RD) was 4 nM. The IC50 (read-out: IC50 in cell proliferation assay, cell line RKO (BRAF p.V600E)) was 8 nM, the IC50 (read-out: IC50 in cell proliferation assay, cell line RL) was > 28200 nM and the IC50 (read-out: IC50 in cell proliferation assay, cell line RT-4 (FGFR3-TACC3)) was 72 nM. It also gave an IC50 (read-out: IC50 in cell proliferation assay, cell line SR (NPM1-ALK)) of 936 nM, an IC50 (read-out: IC50 in cell proliferation assay, cell line T24) of 5 nM and an IC50 (read-out: IC50 in cell proliferation assay, cell line TT (RET p.C634W)) of 1050 nM. For the same compound, the IC50 (read-out: IC50 in cell proliferation assay, cell line VA-ES-BJ) was 89 nM.
